Assay results: patent publication EP4818192A1, “USE OF GRP78-LIKE PEPTIDES” (priority 2023, dated 2026)
Ends that are not written are not given here.

System: periodontal ligament cells (rPDL)
Experimental: A total of 5.0 × 10^4 cells were seeded, and the culture medium was removed and the cells were washed twice with DPBS. The prepared fluorescent peptides were mixed with serum-free culture medium at a concentration of 200 µg/mL and incubated for 1 hour. After 1 hour of treatment, the cells were washed five times with DPBS and mounted with a mounting solution containing DAPI.

| Sequence | cell permeability |
| --- | --- |
| MEHFIKLYKKKTGKDVRK [SEQ ID NO: 4, MEHFIKLYKKKTGKDVRK] | high cell permeability |
| MVLTKMKETAEAYLGKKVTH [SEQ ID NO: 3] | high cell permeability |
| TFAPEEISAMVLTK [SEQ ID NO: 1, TFAPEEISAMVLTK] | high cell permeability |
